Read-outs that look alike come from different tables or passages of the source.
Experiments:
[1] = system: P. falciparum male gametocytes; assay: P. falciparum Dual Gamete Formation Assay (PfDGFA), male readout (exflagellation); type: cell-based, Plasmodium falciparum NF54; conditions: for Average inhibition male (%) / % inhibition male (individual replicates) R1 / % inhibition male (individual replicates) R3 / % inhibition male (individual replicates) R4 / inhibition at 2 µM: 24h preincubation with gametocytes; for Selectivity Ratio M: HepG2 Tox50 versus male IC50; for HitlevelM: number of replicates with >50% inhibition in the male readout
Outline: (§1)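 Male and female gamete formation were quantified by microscopy image analysis following 24 h incubation of mature NF54 gametocytes with compound and activation at 28°C with xanthurenic acid.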

[2] = system: P. falciparum female gametocytes; assay: P. falciparum Dual Gamete Formation Assay (PfDGFA), female readout (Pfs25-positive female gametes); type: cell-based, Plasmodium falciparum NF54; conditions: for Average inhibition female (%) / % inhibition female (individual replicates) R1 / % inhibition female (individual replicates) R3 / % inhibition female (individual replicates) R4 / inhibition at 2 µM: 24h preincubation with gametocytes; for Selectivity ratio F: HepG2 Tox50 versus female IC50; for HitlevelF: number of replicates with >50% inhibition in the female readout
Outline: as §1

[3] = system: HepG2 cells; assay: HepG2 cytotoxicity counter-screen; conditions: for Tox50: cytotoxic activity against HepG2 cells
[4] = PfDGFA, 24 h incubation with gametocytes before induction, exflagellation readout, read-out: Male IC50
[5] = PfDGFA at 2µM, average of replicates
[6] = PfDGFA, 24 h incubation with gametocytes before induction, female gamete readout, read-out: Female IC50

| Structure (SMILES) | Selectivity Ratio M [1] | IC50 [1, 4] [nM] | Selectivity ratio F [2] | Tox50 [3] [µM] | Average inhibition male (%) [1, 5] [%] | % inhibition male (individual replicates) R1 ([1]; PfDGFA at 2µM, replicate R1) [%] | % inhibition male (individual replicates) R3 ([1]; PfDGFA at 2µM, replicate R3) [%] | % inhibition male (individual replicates) R4 ([1]; PfDGFA at 2µM, replicate R4) [%] | HitlevelM ([1]; 2µM) | Average inhibition female (%) [2, 5] [%] | % inhibition female (individual replicates) R1 ([2]; PfDGFA at 2µM, replicate R1) [%] | % inhibition female (individual replicates) R3 ([2]; PfDGFA at 2µM, replicate R3) [%] | % inhibition female (individual replicates) R4 ([2]; PfDGFA at 2µM, replicate R4) [%] | IC50 [2, 6] [nM] | HitlevelF ([2]; 2µM) | other results |
| --- | --- | --- | --- | --- | --- | --- | --- | --- | --- | --- | --- | --- | --- | --- | --- | --- |
| CN(C)c1ccnc2ccc(NC(=O)Nc3ccnc4ccccc34)cc12 [TC74] |  |  |  |  |  |  |  |  |  |  |  |  |  |  |  | Cytotox ratio Pf Male [1]: 13.3; IC50 ([1]; this study, read-out: Pf DGFA IC50 MALE): 1700 nM; Cytotox ratio Pf Female [2]: 3.8; IC50 ([2]; this study, read-out: Pf DGFA IC50 FEM): 5920 nM; Mean TOX ([3]; mean of the HepG2 TOX50 values): 22.68 µM |
| CNC(=O)c1ccccc1Nc1nc(Nc2cccc(CS(C)(=O)=O)c2)ncc1C.O=CO [TCMDC-133809] | 6.79 | 150 | 0.1 | 1.03 |  |  |  |  |  |  |  |  |  |  |  | Average inhibition male (%) ([1]; 2µM, average of replicates): 90.9%; % inhibition male (individual replicates) R1 ([1]; 2µM, replicate R1): 93.6%; % inhibition male (individual replicates) R3 ([1]; 2µM, replicate R3): 92.1%; % inhibition male (individual replicates) R4 ([1]; 2µM, replicate R4): 84.9%; Average inhibition female (%) ([2]; 2µM, average of replicates): -2.2%; % inhibition female (individual replicates) R1 ([2]; 2µM, replicate R1): -7.2%; % inhibition female (individual replicates) R3 ([2]; 2µM, replicate R3): 6.2%; % inhibition female (individual replicates) R4 ([2]; 2µM, replicate R4): -11.5% |
| COc1cccc(CCc2c(CCNCCCCCCNCCc3ccccc3)ccc(OC)c2OC)c1.Cl [TCMDC-132105] | 2.34 | 1200 | 4.54 | 2.82 | 79.5 | 90.7 | 81.0 | 99.1 | 3 | 52.1 | 47.4 | 59.7 | 72.0 | 620 | 2 |  |
| Nc1cc(C=Cc2ccc([N+](=O)[O-])s2)nc2ccccc12 [TCMDC-142296] | 5.37 |  | 1.71 | 1.76 |  |  |  |  |  |  |  |  |  |  |  | inhibition at 2 µM ([1]; Plasmodium falciparum, 2µM, average of replicates, read-out: Average inhibition male (%)): 100%; inhibition at 2 µM ([1]; Plasmodium falciparum, 2µM, replicate R1, read-out: % inhibition male (individual replicates) R1): 99.9%; inhibition at 2 µM ([1]; Plasmodium falciparum, 2µM, replicate R2, read-out: % inhibition male (individual replicates) R2): 101%; inhibition at 2 µM ([1]; Plasmodium falciparum, 2µM, replicate R3, read-out: % inhibition male (individual replicates) R3): 97.4%; inhibition at 2 µM ([1]; Plasmodium falciparum, 2µM, replicate R4, read-out: % inhibition male (individual replicates) R4): 102%; IC50 ([1]; Plasmodium falciparum, PfDGFA, 24 h incubation with gametocytes before induction, exflagellation readout, read-out: Male IC50): 330 nM; inhibition at 2 µM ([2]; Plasmodium falciparum, 2µM, average of replicates, read-out: Average inhibition female (%)): 80.5%; inhibition at 2 µM ([2]; Plasmodium falciparum, 2µM, replicate R1, read-out: % inhibition female (individual replicates) R1): 71.6%; inhibition at 2 µM ([2]; Plasmodium falciparum, 2µM, replicate R2, read-out: % inhibition female (individual replicates) R2): 88.4%; inhibition at 2 µM ([2]; Plasmodium falciparum, 2µM, replicate R3, read-out: % inhibition female (individual replicates) R3): 72.1%; inhibition at 2 µM ([2]; Plasmodium falciparum, 2µM, replicate R4, read-out: % inhibition female (individual replicates) R4): 89.8%; IC50 ([2]; Plasmodium falciparum, PfDGFA, 24 h incubation with gametocytes before induction, female gamete readout, read-out: Female IC50): 1030 nM |
| Cl.OC(CNCCCCCCNCC(O)c1ccc(Cl)c(Cl)c1)c1ccc(Cl)c(Cl)c1 (centres unmarked) [TCMDC-141987] | 3.57 | 1770 | 1.28 | 6.33 | 88.7 | 92.2 | 63.5 | 102.2 | 4 | 52.4 | 44.0 | 21.3 | 69.1 | 4930 | 2 |  |
| COc1ccc(C[C@H](N)C(=O)N[C@H]2[C@@H](O)[C@H](n3cnc4c(N(C)C)ncnc43)O[C@@H]2CO)cc1.Cl [TCMDC-123927] | 4.87 | 410 | 0.5 | 2.01 | 79.6 | 87.8 | 64.7 | 82.2 | 4 | 38.8 | 27.9 | 10.7 | 72.0 | 4000 | 1 |  |
